Results: ChEMBL document CHEMBL1142553, “A new vitamin E (alpha-tocomonoenol) from eggs of the Pacific salmon Oncorhynchus keta” (J Nat Prod, 1999)
Activity calls are given as the source filed them. No cut-off for these calls is given here.

Columns and labels:
Assay type in all cases: functional
[1] = Antioxidant activity in methanolic solution at 83 uM at 37 degC
[2] = Antioxidant activity assessed as inhibition of rate of formation of phosphatidylcholine hydroperoxides at 2.2 uM by phosphatidylcholine oxidation assay
[3] = Antioxidant activity assessed as inhibition of rate of formation of phosphatidylcholine hydroperoxides at 1.9 uM by phosphatidylcholine oxidation assay

| Compound | Activity [1] | Activity [2] | Activity [3] |
| --- | --- | --- | --- |
| Cc1c(C)c2c(c(C)c1O)CC[C@@](C)(CCC[C@H](C)CCC[C@H](C)CCCC(C)C)O2 | Active | Active | – |
| C=C(C)CCC[C@@H](C)CCC[C@@H](C)CCC[C@]1(C)CCc2c(C)c(O)c(C)c(C)c2O1 | Active | – | Active |
